In one assay the test system is A375. Description: Cytotoxicity, MTT assay, A375. It is filed as cell-based, human. The settings on record: 24 h treatment, absorbance 570 nm, three replicates. How it is done: Cytotoxicity of the compounds were tested against human carcinoma cells using the microculture methyl-thiazolyl-tetrazolium (MTT) assay as described previously. Briefly, the cell lines were maintained in a humidified atmosphere containing 5% CO2 at 37 °C. For preparing working solution, 1 μmol of each purified ustiloxin was dissolved in 10 mL of ultrapure water to obtain the stock solution (100 μM), which was further diluted to a series of concentrations (50, 25, 12.5, 6.25, 3.125, 1, 0.1, 1 × 10^−2, 1 × 10^−3, 1 × 10^−4, 1 × 10^−5 μM) with ultrapure water. Normally, 200 μL of the cell suspensions (5 × 10^4 cells/mL) was plated in 96-well culture plates at 37 °C. After 12 h, 20 μL of working solution was added to each well respectively and cultured at 37 °C for 24 h. Then, MTT was dissolved in saline to 5 mg/mL, and 20 μL of this solution was added to each well. After 4 h, the medium was removed, and then 100 μL of DMSO was added to dissolve any formazan crystals formed. Absorbance was then determined at 570 nm. The cell lines of colon cancer cells (HCT-116), non-small-cell lung carcinoma cells (NCI-H1650), gastric cancer cells (BGC-823), and liver hepatocellular carcinoma cells (HepG2) were tested for all isolated compounds. In addition, lung adenocarcinoma cells (A549) were tested on ustiloxins A (2), B (3), and G (1), and melanoma cells (A375) were tested on ustiloxin G (1). […]
A general note: Formazan colour is commonly taken as a measure of viable cells.

A further assay concerns HCT116. As to the kind of experiment: Cytotoxicity, MTT assay, HCT116. The class given is cell-based, human. The settings on record: 24 h treatment, absorbance 570 nm, three replicates. How it is done: (§1) Cytotoxicity of the compounds were tested against human carcinoma cells using the microculture methyl-thiazolyl-tetrazolium (MTT) assay as described previously. Briefly, the cell lines were maintained in a humidified atmosphere containing 5% CO2 at 37 °C. For preparing working solution, 1 μmol of each purified ustiloxin was dissolved in 10 mL of ultrapure water to obtain the stock solution (100 μM), which was further diluted to a series of concentrations (50, 25, 12.5, 6.25, 3.125, 1, 0.1, 1 × 10^−2, 1 × 10^−3, 1 × 10^−4, 1 × 10^−5 μM) with ultrapure water. Normally, 200 μL of the cell suspensions (5 × 10^4 cells/mL) was plated in 96-well culture plates at 37 °C. After 12 h, 20 μL of working solution was added to each well respectively and cultured at 37 °C for 24 h. Then, MTT was dissolved in saline to 5 mg/mL, and 20 μL of this solution was added to each well. After 4 h, the medium was removed, and then 100 μL of DMSO was added to dissolve any formazan crystals formed. Absorbance was then determined at 570 nm. The cell lines of colon cancer cells (HCT-116), non-small-cell lung carcinoma cells (NCI-H1650), gastric cancer cells (BGC-823), and liver hepatocellular carcinoma cells (HepG2) were tested for all isolated compounds. In addition, lung adenocarcinoma cells (A549) were tested on ustiloxins A (2), B (3), and G (1), and melanoma cells (A375) were tested on ustiloxin G (1). Ultrapure water and taxol were used as the negative and positive controls, respectively. All experiments were performed with three replicates.

A further assay concerns BGC-823. Description: Cytotoxicity, MTT assay, BGC-823. The class given is cell-based, human. The settings on record: 24 h treatment, absorbance 570 nm, three replicates. How it is done:
as §1

The subject of another assay is HepG2. As to the kind of experiment: Cytotoxicity, MTT assay, HepG2. The class given is cell-based, human. The settings on record: 24 h treatment, absorbance 570 nm, three replicates. How it is done:
as §1

The next assay relates to NCI-H1650. As to the kind of experiment: Cytotoxicity, MTT assay, NCI-H1650. It is filed as cell-based, human. The settings on record: 24 h treatment, absorbance 570 nm, three replicates. How it is done:
as §1

A further assay deals with A549. As to the kind of experiment: Cytotoxicity, MTT assay, A549. The class given is cell-based, human. The settings on record: 24 h treatment, absorbance 570 nm, three replicates. How it is done:
as §1

Assay [1] has as its system rice (Oryza sativa) seeds, germ. As to the kind of experiment: Inhibition of germ elongation of rice seeds. The settings on record: 48 h, 25 °C, dark, mean of triplicate ± SD. How it is done: (§2) Phytotoxicity of the compounds was evaluated by their inhibitory activities on the radicle and germ elongation of rice (Oryza sativa) seeds. Two varieties (Lijiang and Zhonghua 11) of the seeds, which were obtained from Prof. Zejian Guo (Department of Plant Pathology and collected in 2015, China Agricultural University) were used.
(§3) The bioassay was performed using the method described previously with some modifications. Briefly, five 3-day germinated rice seeds of each rice variety were sown onto each well of a 24-well plate, containing 200 μL of working solution. For preparing working solution, 1 mg of each purified compound was dissolved in 1 mL of ultrapure water to obtain the stock solution (1 mg/mL), which was further diluted to a series of concentrations (200, 100, 50, 20, and 10 μg/mL) with ultrapure water. The ultrapure water was used as the negative control, and glyphosate (N-(phosphonomethyl)glycine) at the same concentrations as the positive control. Plates were incubated in a moist chamber at 25 °C in the dark. The length of each radicle or germ was measured after treatment for 48 h. The inhibition of radicle or germ elongation was calculated as follows: Inhibition (%) = [(Lc − Lt)/Lc] × 100, where Lc is the radicle or germ length of the control group, and Lt is the length of the treated group.
(§4) All experiments were performed with three replicates, and the results were represented by their mean values and the standard deviations (SD). The data were carried out using analysis of variance (one-way ANOVA) to detect significant differences by PROC ANOVA of SAS version 8.2.

The next assay deals with rice seedlings. As to the kind of experiment: Abnormal swelling of roots and germs of rice seedlings. Further details: species or system Oryza sativa. The settings on record: observation in words; Figure 3B shows 200 µg/mL of ustiloxin G, variety Lijiang. How it is done:
as §3

For assay [2], the system named is rice (Oryza sativa) seeds, radicle. As to the kind of experiment: Inhibition of radicle elongation of rice seeds. The settings on record: 48 h, 25 °C, dark, mean of triplicate ± SD. How it is done: as §2, §3, §4
The mark [3] stands for this setting: liver hepatocellular carcinoma cells.
The mark [4] stands for this setting: non-small-cell lung carcinoma cells.

The structures appear in SMILES notation. A value given as a limit tells only on which side of the number the result lay.

`CC(=O)O[C@H]1C(=O)[C@@]2(C)[C@H]([C@H](OC(=O)c3ccccc3)[C@]3(O)C[C@H](OC(=O)[C@H](O)[C@@H](NC(=O)c4ccccc4)c4ccccc4)C(C)=C1C3(C)C)[C@]1(OC(C)=O)CO[C@@H]1C[C@@H]2O` [Taxol, reference compound]: the IC50 with A375 (Homo sapiens, A-375, melanoma cells) worked out at 0.022 µM; with HCT116 (Homo sapiens, HCT-116, colon cancer cells), 0.0019 µM; in the assay on BGC-823 (Homo sapiens, BGC-823, gastric cancer cells), 0.000107 µM; with HepG2 (Homo sapiens, HepG2, liver hepatocellular carcinoma cells) it was 0.0146 µM; in the assay on NCI-H1650 (Homo sapiens, NCI-H1650, non-small-cell lung carcinoma cells), 1.1 µM; with A549 (Homo sapiens, A549, lung adenocarcinoma cells) it was 0.023 µM.
As to `CC[C@@]1(C)Oc2cc(c([S+]([O-])C[C@@H](O)C[C@H](N)C(=O)O)cc2O)[C@@H](O)[C@H](NC)C(=O)N[C@@H](C)C(=O)N[C@@H]1C(=O)NCC(=O)O` (some centres unmarked) [Ustiloxin B (3), ustiloxin B], the IC50 is 7.2 µM in the assay on HCT116 (colon cancer cells); 1.03 µM in the assay with BGC-823 (gastric cancer cells); 13 µM with HepG2 (setting [3]); 21.6 µM with NCI-H1650 (setting [4]); more than 50 µM in the assay on A549 (lung adenocarcinoma cells). Moreover, the “Inhibition Ratio (%) Seed Germ Var. Lijiang” value came out at 13.54% in assay [1] (10 µg/mL); 20.63% in assay [1] (20 µg/mL); 37.98 ± 3.83 e % in assay [1] (50 µg/mL); 49.65 ± 2.13 d % in assay [1] (100 µg/mL); 64.39% in assay [1] (200 µg/mL). Moreover, the “Inhibition Ratio (%) Seed Germ Var. Zhonghua 11” value in [1] (10 µg/mL) is on record as 3.30%; in assay [1] (20 µg/mL), 12.02%; in [1] (50 µg/mL), 35.60%; in assay [1] (100 µg/mL), 44.72%; in assay [1] (200 µg/mL), 55.61 ± 2.75 a %. In the assay on rice seedlings, the “abnormal swelling of the roots and germs of rice seedlings” value is “abnormal swelling”. Moreover, the “Inhibition Ratio (%) Seed Radicle Var. Lijiang” value is on record as 4.16 ± 0.66 l % in assay [2] (10 µg/mL); 14.27% in assay [2] (20 µg/mL); 53.24 ± 4.98 e % in assay [2] (50 µg/mL); 86.62 ± 1.98 b % in [2] (100 µg/mL); 95.32 ± 1.32 a % in assay [2] (200 µg/mL). The “Inhibition Ratio (%) Seed Radicle Var. Zhonghua 11” value in [2] (10 µg/mL) is 11.90 ± 6.45 l %; in assay [2] (20 µg/mL) it was 20.22%; in assay [2] (50 µg/mL) it was 54.78 ± 3.09 d %; in assay [2] (100 µg/mL), 87.80%; in [2] (200 µg/mL) it was 93.04 ± 2.10 a %.
`CC[C@@]1(C)Oc2cc(c([S+]([O-])CCO)cc2O)[C@@H](O)[C@H](NC)C(=O)N[C@@H](C(C)C)C(=O)N[C@@H]1C(=O)NCC(=O)O` (some centres unmarked) [Ustiloxin G (1), ustiloxin G]: the IC50 was 22.5 µM in the assay with A375 (melanoma cells); more than 50 µM in the assay on HCT116 (colon cancer cells); more than 50 µM in the assay with BGC-823 (gastric cancer cells); more than 50 µM in the assay with HepG2 (setting [3]); more than 50 µM with NCI-H1650 (setting [4]); 36.5 µM with A549 (lung adenocarcinoma cells). Moreover, the “Inhibition Ratio (%) Seed Germ Var. Lijiang” value in assay [1] (10 µg/mL) is listed as 2.74 ± 4.76 l %; in [1] (20 µg/mL), 8.89%; in assay [1] (50 µg/mL), 27.96 ± 3.32 f %; in assay [1] (100 µg/mL), 36.95 ± 5.23 e %; in [1] (200 µg/mL), 65.01%. The “Inhibition Ratio (%) Seed Germ Var. Zhonghua 11” value in assay [1] (10 µg/mL) came out at 14.11%; in assay [1] (20 µg/mL) it was 14.68%; in assay [1] (50 µg/mL), 36.29%; in assay [1] (100 µg/mL), 39.33%; in [1] (200 µg/mL), 50.45%. In the assay with rice seedlings, the “abnormal swelling of the roots and germs of rice seedlings” value is reported as “abnormal swelling”. In addition, the “Inhibition Ratio (%) Seed Radicle Var. Lijiang” value worked out at 12.56% in [2] (10 µg/mL); 17.00% in assay [2] (20 µg/mL); 37.64 ± 1.21 g % in assay [2] (50 µg/mL); 90.33% in assay [2] (100 µg/mL); 95.19 ± 1.92 a % in assay [2] (200 µg/mL). For the same compound, the “Inhibition Ratio (%) Seed Radicle Var. Zhonghua 11” value in assay [2] (10 µg/mL) amounted to 27.27%; in assay [2] (20 µg/mL), 31.67%; in assay [2] (50 µg/mL), 54.14 ± 4.20 d %; in assay [2] (100 µg/mL) it was 90.16 ± 3.62 a %; in assay [2] (200 µg/mL) it was 93.40 ± 1.91 a %.

One may read the IC50 as the concentration at which inhibition is half-maximal.

(Values after article PMC5331433, “Ustiloxin G, a New Cyclopeptide Mycotoxin from Rice False Smut Balls” (Toxins, 2017).)
